Laboratory results published in US9101573B2, “Lanthionine synthetase component C-like proteins as molecular targets for preventing and treating diseases and disorders” (VIRGINIA TECH INTELLECTUAL PROPERTIES, INC., priority 2010, dated 2015).

Legend:
[1] = test system: pandemic 2009 H1N1 influenza A California/09 virus; assay: Pandemic H1N1 influenza virus infection in mice; format: in vivo
[2] = test system: mouse model of DSS-induced colitis; assay: DSS-induced colitis (experimental IBD) in C57BL/6J wild-type mice; format: in vivo
Experimental: Six to eight week old C57BL/6J wild-type mice (n=38) were housed at the animal facilities at Virginia Tech. in a room maintained at 75° F., with a 12:12 h light-dark cycle starting from 6:00 AM. Mice were randomly divided into four groups: a control group including 8 mice and the other three NSC61610 treatment groups containing 10 mice each. The three treatment groups received 0.5, 10 or 20 mg/kg NSC61610 by orogastric gavage for 7 days. All the mice were challenged with drinking water containing 2.5% DSS, 36,000-44,000 molecular weight (ICN Biomedicals, Aurora, Ohio) for 7 days. Mice were weighed on a daily basis and examined for clinical signs of disease associated with colitis (i.e., perianal soiling, rectal bleeding, diarrhea, and piloerection). For the DSS challenge, the disease activity indices and rectal bleeding scores were calculated using a modification of a previously published compounded clinical score. Briefly, disease activity index consisted of a scoring for diarrhea and lethargy (0-3), whereas rectal bleeding consisted of a visual observation of blood in feces and the perianal area (0-4). Mice in the DSS study were euthanized on day 7 of the DSS challenge. On day 7, mice were euthanized by CO2 narcosis followed by secondary thoracotomy and blood was withdrawn from the heart. Colon, spleen, and MLN were scored based on size and macroscopic inflammatory lesions (0-3), excised, and then crushed to produce single-cell suspensions for flow cytometry.
Colonic sections were fixed in 10% buffered neutral formalin, later embedded in paraffin, and then sectioned ([…]) and stained with H&E stain for histological examination. Colons were blindly graded with a compounded histological score including the extent of (1) leukocyte infiltration. (2) mucosal thickening, and (3) epithelial cell erosion. The sections were graded with a score of 0-4 for each of the previous categories and data were analyzed as a normalized compounded score.
Total RNA was isolated from colons using the RNA isolation Minikit (Qiagen) according to the manufacturer's instructions. Total RNA ([…]) was used to generate complementary DNA (cDNA) template using the iScript cDNA Synthesis Kit (Bio-Rad, Hercules, Calif.). The total reaction volume was 20 μL with the reaction incubated as follows in an MJ MiniCycler: 5 min at 25° C., 30 min at […], 5 min at 85° C., and hold at 4° C. PCR was performed on the cDNA using Taq DNA polymerase (Invitrogen, Carlsbad, Calif.) and using previously described conditions. Each gene amplicon was purified with the MiniElute PCR Purification Kit (Qiagen) and quantitated on an agarose gel by using a DNA mass ladder (Promega). These purified amplicons were used to optimize real-time (RT)-PCR conditions and to generate standard curves. Primer concentrations and annealing temperatures were optimized for the iCycler iQ system (Bio-Rad) for each set of primers using the system's gradient protocol. PCR efficiencies were maintained between 92 and 105% and correlation coefficients above 0.98 for each primer set during optimization and also during the real-time PCR of sample DNA.
Complementary DNA (cDNA) concentrations for genes of interest were examined by real-time quantitative PCR using an iCycler IQ System and the iQ SYBR green supermix (Bio-Rad). A standard curve was generated for each gene using 10-fold dilutions of purified amplicons starting at 5 pg of cDNA and used later to calculate the starting amount of target cDNA in the unknown samples. SYBR green I is a general double-stranded DNA intercalating dye and may therefore detect non-specific products and primer/dimers in addition to the amplicon of interest. In order to determine the number of products synthesized during the real-time PCR, a melting curve analysis was performed on each product. Real-time PCR was used to measure the starting amount of nucleic acid of each unknown sample of cDNA on the same 96-well plate. […]

[3] = test system: mouse model of DSS-induced colitis, PPAR γ fl/fl Cre−, CD4-Cre+ and Lysozyme M-Cre+ mice; assay: DSS colitis in tissue-specific PPAR γ null mice; format: in vivo
Experimental: PPAR γ fl/fl MMTV-Cre− (n=20), tissue-specific PPAR γ fl/fl CD4-Cre+ ([…]) PPAR γ null mice (n=20) and tissue-specific PPAR γ fl/fl Lsozyme M-Cre+ (macrophage-deficient) PPAR γ null mice (n=20) littermates in a C57BL/6J background were generated by using the Cre-lox recombination system as previously described. The mice were housed at the animal facilities at Virginia Tech. in a room maintained at 75° F., with a 12:12 h light-dark cycle starting from 6:00 AM. In each group, 20 mice were randomly divided into two groups: a control group including 10 mice and a NSC61610 treatment groups containing 10 mice respectively. The three treatment groups received 20 mg/kg NSC61610 by orogastric gavage for 6 days. All the mice (n=60) were challenged with drinking water containing 2.5% DSS, 36,000-44,000 molecular weight (ICN Biomedicals, Aurora, Ohio) for 6 days. Mice were weighed on a daily basis and examined for clinical signs of disease associated with colitis (i.e., perianal soiling, rectal bleeding, diarrhea, and piloerection). For the DSS challenge, the disease activity indices and rectal bleeding scores were calculated using a modification of a previously published compounded clinical score. Briefly, disease activity index consisted of a scoring for diarrhea and lethargy (0-3), whereas rectal bleeding consisted of a visual observation of blood in feces and the perianal area (0-4). Mice in the DSS study were euthanized on day 6 of the DSS challenge. On day 6, mice were euthanized by CO2 narcosis followed by secondary thoracotomy and blood was withdrawn from the heart. Colon, spleen, and MLN were scored based on size and macroscopic inflammatory lesions (0-3), excised, and then crushed to produce single-cell suspensions for flow cytometry.

PPAR γ = PPAR γ reporter activity assay on 3T3-L1 pre-adipocytes; format: cell-based; details: 2.5 μM, 24 hours, vs untreated cells
Experimental: 3T3-L1 cells were plated into white, opaque 96-well plates (BD) 24 hours before transfection and grown in DMEM containing 10% fetal bovine serum (FBS) until 70% confluence. Cells were then co-transfected with 0.2 μg pCMX.PPAR γ expression plasmid expression plasmid, 0.2 μg pTK.PPRE3x luciferase reporter plasmid driven by the PPRE-containing Acyl-CoA oxidase promoter and 0.2 μg pRL reporter control using the Lipofectamine 2000 transfection reagent (Invitrogen). After 48 hr incubation at 37° C., cells were then treated in replicates of 8 with NSC61610 2.5 μM or DMSO control and incubated for 24 hr at 37° C. After incubation, cells were harvested in reporter lysis reagent and luciferase activity was determined using the Dual Luciferase II reporter assay system (Promega, Madison, Wis.) in Modulus 96-well luminometer (Turner Biosystems, Sunnyvale, Calif.). All values were normalized to control wells to calculate relative luciferase activity.

[4] = biological target: T1, ligand-binding domain (LBD) of PPAR γ (Homo sapiens, UniProt P37231); assay: Binding of ABA to PPAR γ LBD (unpublished data)
T1 sequence (P37231 238-503 limits assumed): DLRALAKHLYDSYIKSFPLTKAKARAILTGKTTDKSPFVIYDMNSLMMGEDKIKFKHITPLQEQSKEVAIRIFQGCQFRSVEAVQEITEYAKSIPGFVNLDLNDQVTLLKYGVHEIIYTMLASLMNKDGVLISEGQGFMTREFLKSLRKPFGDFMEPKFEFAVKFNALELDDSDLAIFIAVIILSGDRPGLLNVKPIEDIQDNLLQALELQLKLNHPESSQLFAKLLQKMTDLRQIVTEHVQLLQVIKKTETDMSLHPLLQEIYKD

LANCL2 = biological target: T2, LANCL2 (Mus musculus, UniProt Q9JJK2); assay: Western blot binding assay between ABA and LANCL2; details: RAW 264.7 macrophages treated with ABA for 20 minutes; re-probing western blot; control without ABA showed no band
T2 construct: Proteins were extracted from Raw 264.7 Macrophage using Radio-Immunoprecipitation Assay buffer; endogenous in cells; host or cells: RAW 264.7 macrophages
T2 sequence (Q9JJK2 1-450): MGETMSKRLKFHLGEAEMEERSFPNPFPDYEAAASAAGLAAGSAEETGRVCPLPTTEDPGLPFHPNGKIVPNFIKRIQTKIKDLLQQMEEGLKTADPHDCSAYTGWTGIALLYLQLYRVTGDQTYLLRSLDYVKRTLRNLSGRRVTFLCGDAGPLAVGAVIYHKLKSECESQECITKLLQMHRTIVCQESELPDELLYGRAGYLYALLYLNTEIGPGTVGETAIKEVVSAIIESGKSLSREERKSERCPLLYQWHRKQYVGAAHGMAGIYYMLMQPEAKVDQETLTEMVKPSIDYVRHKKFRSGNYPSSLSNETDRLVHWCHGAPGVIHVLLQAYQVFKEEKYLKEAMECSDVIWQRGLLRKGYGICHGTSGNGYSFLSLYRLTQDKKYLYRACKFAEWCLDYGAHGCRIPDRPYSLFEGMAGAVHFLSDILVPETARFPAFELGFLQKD
Experimental: RAW 264.7 macrophages were cultured with DMEM (Mediatech, Manassas, Va.) containing 10% fetal bovine serum (FBS) in two flasks and grown until 60-70% confluence. RAW 264.7 macrophages in one flask were treated with abscisic acid (SIGMA-ALDRICH) for 20 minutes. RAW 264.7 macrophages in the other flask without ABA were used as control. Proteins were extracted from Raw 264.7 Macrophage using Radio-Immunoprecipitation Assay buffer (RIPA) (SIGMA-ALDRICH) with inhibitors. 10% SDS-PAGE was applied to analyze the proteins in Bio-Rad mini-gel box running condition. For Western blotting, proteins were electrotransferred to nitrocellulose by standard methods along with the Presicion Plus Kaleidoscope Standard (BIO-RAD). Filters were blocked by 5% BSA in TBS-Tween for 1 hour, followed by incubation with rabbit anti-LANCL2 primary antibody (SIGMA-ALDRICH) in TBS-Tween for 6 hours at room temperature. Goat anti-rabbit horseradish peroxidase-conjugated secondary antibodie (Santa Cruz Biotechnology) was used 1:2,000 in TBS-Tween, and protein bands were detected with Immun-Star™ chemiluminescent substrate (BIO-RAD). […] Donkey anti-rat horseradish peroxidase-conjugated secondary antibodie (Santa Cruz Biotechnology) was used 1:2,000 in TBS-Tween, and protein bands were detected with Immun-Star™ chemiluminescent substrate (BIO-RAD).

[5] = 0.5, 10 and 20 mg/kg, day 7 of DSS
[6] = highest concentration, flow cytometry

## O=C(Nc1cccc(-c2nc3ccccc3[nH]2)c1)c1ccc(C(=O)Nc2cccc(-c3nc4ccccc4[nH]3)c2)cc1 [NSC61610, 1-N,4-N-bis[3-(1H-benzimidazol-2-yl)phenyl]benzene-1,4-dicarboxamide]
[1]; day 13 post-infection, irrespective of genotype
  antigen-specific proliferation of splenocytes stimulated ex vivo with live virus: higher
[1]; infected mice, 20 mg/kg
  extent of lung congestion and hyperemia (macroscopic and histological score): reduced
[1]; infected mice, 20 mg/kg orogastric gavage daily, vs untreated infected mice
  influenza-related weight loss: lower weight loss
[1]; infected treated mice, by day 13
  body weight: began to gain weight
[2]; 0.5, 10 and 20 mg/kg BW orogastric gavage, 7 days, 2.5% DSS, vs untreated control mice
  disease activity index (DAI): significantly reduced
[2]; [5]
  gross inflammation in MLN: significantly reduced
  gross inflammation in colon: significantly reduced
  gross inflammation in spleen: significantly reduced
[2]; flow cytometry
  numbers of mesenteric lymph node (MLN) Treg: No effect
  percentage of F4/80+CD11b+ macrophages in the colonic lamina propria: reduced
  percentage of Treg cells in blood: significantly increased
  percentage of Treg cells in colon: significantly increased
  percentage of Treg cells in spleen: significantly increased
[2]; [6]
  percentage of CD4+ IL10+ T cells in MLN: significantly increased
  percentage of CD4+ IL10+ T cells in blood: significantly increased
  percentage of CD4+ IL10+ T cells in colon: significantly increased
  percentage of CD4+ IL10+ T cells in spleen: significantly increased
[2]; maximum dose 20 mg/kg
  PPAR γ gene expression in colon: enhanced PPAR γ gene expression significantly
[2]; mice with DSS colitis
  epithelial erosion (colon histology): significantly reduced
  leukocyte infiltration (colon histology): significantly reduced
  mucosal thickening (colon histology): significantly reduced
[2]; real-time quantitative PCR
  colonic expression of IL-6: significantly lowered
  colonic expression of MCP-1: significantly lowered
  colonic expression of TNF-α: significantly lowered
[2]; real-time quantitative PCR, vs control mice
  PPAR γ gene expression in colon: increased
[3]; 20 mg/kg BW for 6 days during DSS challenge, vs untreated control mice
  disease activity index: significantly reduced
[3]; PPAR γ-expressing mice with DSS colitis, 20 mg/kg
  macroscopic inflammatory lesions: significantly reduced
[3]; T cell-specific PPAR γ null mice with DSS colitis, 20 mg/kg
  macroscopic inflammatory lesions: significantly reduced
[3]; macrophage-specific PPAR γ null mice, 20 mg/kg
  effect on IBD in MLNs and spleens: abrogated
PPAR γ
  PPAR γ expression (dual luciferase reporter): significantly elevated

## CC1=CC(=O)CC(C)(C)[C@@]1(O)/C=C/C(C)=C\C(=O)O [abscisic acid, [S-(Z,E)]-5-(1-Hydroxy-2,6,6-trimethyl-4-oxo-2-cyclohexen-1-yl)-3-methyl-2,4-pentanedienoic acid]
[4]
  direct binding to the LBD of PPAR γ: does not bind directly
LANCL2
  band with anti-ABA antibody at the LANCL2 location on the membrane: clear band
